Tests used:
[1] = RP-HPLC retention on IAM.PC.DD2 (immobilized artificial membrane) column, buffer pH 7.4-acetonitrile; assay type: physicochemical; conditions: for log kw, IAM: extrapolated to buffer pH 7.4 as mobile phase, 25 °C; for s IAM: slope of Soczewiński-Wachtmeister equation, acetonitrile φ 0.2–0.5
Experimental: (§1) Retention parameters reported as the log k values were calculated by the expression:(1) logk=log(tR−t0)/t0 where tR and t0 are the retention times of the solute and a non-retained compound (citric acid), respectively. They were used to calculate the log kw values, i.e., logarithms of retention parameter in the buffer as the mobile phase. For this purpose the Soczewiński-Wachtmeister’s equation was used:log k = log kw − sφ(2) where φ is the volume fraction of organic modifier in the mobile phase; k and kw are retention parameters corresponding to mixed effluent and buffer as the mobile phase, respectively. The slope s is characteristic of a given solute and chromatographic system. Strong linear relationships between log k and φ values were found for all the compounds in the range of effluent composition examined (R^2 > 0.9). The log kw values determined for the ODS (log kw, ODS), IAM (log kw, IAM) and Cholester (log kw, Cholester) columns were intercorrelated and the following linear relationships with a very good statistical quality were obtained:log kw, ODS = 0.691(± 0.094) + 0.982(± 0.044) log kw, IAM(3) SD = 0.257; R^2 = 0.8880; N = 65 log kw, ODS = 0.911(± 0.062) + 0.765(± 0.025) log kw, Cholester(4) SD = 0.192; R^2 = 0.9371; N = 65 log kw, IAM = 0.356(± 0.073) + 0.721(± 0.029) log kw, Cholester(5) SD = 0.224; R^2 = 0.9068; N = 65
(§2) Shimadzu Vp (Shimadzu, Izabelin, Poland) liquid chromatographic system equipped with LC 10AT pump, SPD 10A UV-Vis detector, SCL 10A system controller, CTO-10 AS chromatographic oven and Rheodyne injector valve with a 20 µL loop was applied in HPLC measurements. Three stationary phases were employed: • Purosphere RP-18e (ODS), 125 × 4 mm i.d., 5 µm (Merck); • IAM.PC.DD2 100 × 4.6 mm i.d., 10 µm (Regis Chemicals Company, Morton Grove, IL, USA); • Cosmosil Cholester, 75 × 2 mm i.d., 2.5 µm (Genore, Warsaw, Poland).
(§3) As mobile phases buffer-acetonitrile mixtures were used. The buffer was prepared from 0.01 mol L^−1 solutions of Na2HPO4 and citric acid and the pH 7.4 value was fixed before mixing with organic modifier. With the ODS column acetonitrile concentration in the effluent, expressed as a volume fraction (φ, v/v), was changed in the range 0.3–0.6, with the constant step of 0.1. The flow rate was 1 mL min^−1. With the IAM column acetonitrile concentration was changed in the range 0.2–0.5, also with the constant step of 0.1 and the flow rate was 1.3 mL min^−1. With the Cosmosil Cholester column acetonitrile concentration was changed in the range 0.4–0.6, with the constant step of 0.05 and the flow rate was 0.4 mL min^−1. Samples of test compounds were dissolved in acetonitrile—c.a. 0.005 mg mL^−1. […] They were detected under UV light at 210 and 254 nm. All measurements were carried out at 25 °C. The dead time values were measured from non-retained compound (citric acid) peaks. All reported log kw values are the average of at least three independent measurements. The extrapolated retention coefficients (logs kw) achieved by HPLC on ODS, IAM and Cholester stationary phases were used for modelling the log BB permeation of 65 drug-like compounds employed as a whole test set (Table 1).

[2] = RP-HPLC retention on Cosmosil Cholester column, buffer pH 7.4-acetonitrile; assay type: physicochemical; conditions: for log kw, Cholester: extrapolated to buffer pH 7.4 as mobile phase, 25 °C; for s Cholester: slope of Soczewiński-Wachtmeister equation, acetonitrile φ 0.4–0.6
Experimental: as §1, §2, §3

[3] = RP-HPLC retention on Purosphere RP-18e (ODS) column, buffer pH 7.4-acetonitrile; assay type: physicochemical; conditions: for log kw, ODS: extrapolated to buffer pH 7.4 as mobile phase, 25 °C; for s ODS: slope of Soczewiński-Wachtmeister equation, acetonitrile φ 0.3–0.6
Experimental: as §1, §2, §3

[4] = system: human cancer cells; parameters: method as in doi:10.1016/j.arabjc.2016.12.024, PMID 24126095; conditions: cited from earlier work
[5] = system: normal cells; parameters: method as in doi:10.1016/j.arabjc.2016.12.024, PMID 24126095; conditions: cited from earlier work

| SMILES | log kw, IAM [1] | s IAM [1] | log kw, Cholester [2] | s Cholester [2] | log kw, ODS [3] | s ODS [3] | antiproliferative activities in human cancer cells [4] | toxic effects for normal cells [5] |
| --- | --- | --- | --- | --- | --- | --- | --- | --- |
| CCc1nnc2n(c1=O)CCN2c1ccccc1 [Compound 1] | 0.55 | 2.10 | 0.20 | 1.25 | 0.97 | 2.70 | significant antiproliferative activities | less toxic effects |
| CCc1nnc2n(c1=O)CCN2c1ccc(C)cc1 [Compound 2] | 1.00 | 2.88 | 0.57 | 1.84 | 1.30 | 3.12 | significant antiproliferative activities | less toxic effects |
| CCc1nnc2n(c1=O)CCN2c1cccc(Cl)c1 [Compound 4] | 0.84 | 2.60 | 0.62 | 1.82 | 1.33 | 3.15 | significant antiproliferative activities | less toxic effects |
| CCc1nnc2n(c1=O)CCN2c1ccc(Cl)cc1 [Compound 5] | 1.24 | 3.25 | 1.18 | 2.61 | 1.78 | 3.56 | significant antiproliferative activities | less toxic effects |
| CCOC(=O)Cc1nnc2n(c1=O)CCN2c1cccc(Cl)c1 [Compound 15] | 2.05 | 4.45 | 2.41 | 4.15 | 2.85 | 4.90 | significant antiproliferative activities | less toxic effects |
| O=c1c(Cc2cccc(Cl)c2)nnc2n1CCN2c1ccccc1 [Compound 43] | 2.48 | 5.18 | 2.90 | 4.80 | 3.59 | 5.85 |  |  |
| O=c1c(Cc2ccc(Cl)cc2)nnc2n1CCN2c1ccccc1 [Compound 44] | 2.39 | 4.81 | 3.01 | 4.70 | 3.60 | 5.62 |  |  |
| Cc1ccc(N2CCn3c2nnc(Cc2ccccc2)c3=O)cc1 [Compound 45] | 2.15 | 4.69 | 2.74 | 4.59 | 3.35 | 5.55 |  |  |
| Cc1ccc(Cc2nnc3n(c2=O)CCN3c2ccc(C)cc2)cc1 [Compound 46] | 2.51 | 5.22 | 3.15 | 5.05 | 3.04 | 5.30 |  |  |
| Cc1ccc(N2CCn3c2nnc(Cc2cccc(C)c2)c3=O)cc1 [Compound 47] | 2.59 | 5.14 | 3.09 | 5.06 | 3.09 | 5.24 |  |  |
| Cc1ccc(N2CCn3c2nnc(Cc2ccccc2Cl)c3=O)cc1 [Compound 48] | 2.65 | 5.21 | 3.24 | 4.90 | 3.12 | 5.11 |  |  |
| Cc1ccc(N2CCn3c2nnc(Cc2cccc(Cl)c2)c3=O)cc1 [Compound 49] | 2.78 | 5.50 | 3.40 | 5.33 | 3.31 | 5.41 |  |  |
| Cc1ccc(N2CCn3c2nnc(Cc2ccc(Cl)cc2)c3=O)cc1 [Compound 50] | 2.81 | 5.62 | 3.39 | 5.34 | 3.22 | 5.55 |  |  |
| CCOc1ccc(N2CCn3c2nnc(Cc2ccc(C)cc2)c3=O)cc1 [Compound 52] | 2.43 | 5.02 | 3.07 | 5.02 | 3.14 | 5.36 |  |  |
| CCOc1ccc(N2CCn3c2nnc(Cc2ccccc2Cl)c3=O)cc1 [Compound 53] | 2.51 | 5.17 | 3.21 | 5.15 | 2.93 | 5.02 |  |  |
| CCOc1ccc(N2CCn3c2nnc(Cc2cccc(Cl)c2)c3=O)cc1 [Compound 54] | 2.73 | 5.61 | 3.31 | 5.22 | 3.35 | 5.55 |  |  |

Now from value to molecule, other results behind:

| log kw, IAM [1] | s IAM [1] | log kw, Cholester [2] | s Cholester [2] | log kw, ODS [3] | s ODS [3] | SMILES | antiproliferative activities in human cancer cells [4] | toxic effects for normal cells [5] |
| --- | --- | --- | --- | --- | --- | --- | --- | --- |
| 2.72 | 5.44 | 3.36 | 5.35 | 3.32 | 5.66 | CCOc1ccc(N2CCn3c2nnc(Cc2ccc(Cl)cc2)c3=O)cc1 [Compound 55] |  |  |
| 2.02 | 4.31 | 2.34 | 4.05 | 3.01 | 4.95 | Cc1ccccc1N1CCn2c1nnc(Cc1ccccc1Cl)c2=O [Compound 56] |  |  |
| 2.52 | 5.06 | 2.98 | 4.85 | 3.11 | 5.05 | O=c1c(Cc2ccccc2)nnc2n1CCN2c1ccc(Cl)cc1 [Compound 57] |  |  |
| 3.22 | 6.32 | 3.74 | 5.62 | 3.55 | 5.65 | O=c1c(Cc2ccccc2Cl)nnc2n1CCN2c1ccc(Cl)cc1 [Compound 58] |  |  |
| 3.15 | 6.01 | 3.67 | 5.75 | 3.61 | 5.85 | O=c1c(Cc2cccc(Cl)c2)nnc2n1CCN2c1ccc(Cl)cc1 [Compound 59] |  |  |
| 3.17 | 6.18 | 3.68 | 5.82 | 4.02 | 6.45 | O=c1c(Cc2ccc(Cl)cc2)nnc2n1CCN2c1ccc(Cl)cc1 [Compound 60] |  |  |
| 2.07 | 4.45 | 2.33 | 4.02 | 2.80 | 4.92 | O=c1c(CCc2ccccc2)nnc2n1CCN2c1ccccc1 [Compound 61] |  |  |
| 2.41 | 5.01 | 2.84 | 4.70 | 3.23 | 5.44 | Cc1ccc(N2CCn3c2nnc(CCc2ccccc2)c3=O)cc1 [Compound 62] |  |  |
| 3.40 | 6.55 | 4.12 | 6.20 | 4.29 | 6.66 | O=c1c(CCc2ccccc2)nnc2n1CCN2c1ccc(Cl)c(Cl)c1 [Compound 65] |  |  |
